Results on 12 molecules are retold here after US20100197495A1, “Synergistic Mixtures and/or Compositions With a High Fungicidal Activity” (priority 2005, published 2010).

The test system of this test is Plasmopara viticola. In words: 7-day preventive activity on Plasmopara viticola on vines, preventive leaf application (greenhouse test). In kind it is in vivo. Further details: key to Activity (y): scale 100 = healthy plant to 0 = completely infected plant. Here is the method:
Efficacy of the mixtures of one or more compounds belonging to the FOS and SIN groups of compounds in the control of Plasmopara viticola on vines in preventive leaf application (greenhouse test) (Table 1-Table 3) and of the compositions of said mixtures with a further fungicidal component (Table 4).
Leaves of cultivar Merlot vines, grown in vases, in a conditioned environment (20±1° C., 70% relative humidity) are treated by spraying both sides of the leaves with the mixtures under examination dispersed in an aqueous solution containing a 0.3% of tween 20.
After remaining 7 days in a conditioned environment, the plants are infected on the lower side with an aqueous suspension of spores of Plasmopara viticola (200,000 spores per cm^3).
The plants are kept in a humidity saturated environment, at 21° C., for the incubation period of the fungus and, at the end of this period (7 days), the fungicidal activity is evaluated according to an evaluation percentage scale from 100 (healthy plant) to 0 (completely infected plant).
When the fungicidal activity found experimentally is greater than the value of E, this activity is considered a synergistic effect.

Where [1] appears, read: Table 4, alone, 32 ppm of equivalent metal copper.
Setting [2] is: Table 4, alone, 125 ppm of equivalent phosphorous acid.
[3] abbreviates: compound alone, 250 ppm of equivalent phosphorous acid, scale 100 (healthy plant) to 0 (completely infected plant).

Consider `CC(=O)Oc1ccccc1C(=O)[O-].CC(=O)Oc1ccccc1C(=O)[O-].[Cu+2]` [Cu(ASA)2], for which the “% activity of each single compound” value under setting [1] was “Cu(ASA)2: 32 ppm*** (45) %”. `[C-]#N.[C-]#N.[C-]#N.[C-]#N.[C-]#N.[C-]#N.[C-]#N.[C-]#N.[C-]#N.[C-]#N.[C-]#N.[C-]#N.[C-]#N.[C-]#N.[C-]#N.[C-]#N.[C-]#N.[C-]#N.[Fe+2].[Fe+2].[Fe+2].[Fe+3].[Fe+3].[Fe+3].[Fe+3]` [Prussian blue]: the “Activity (y)” value (SIN compound alone, 250 ppm) was 32. Besides, the “% activity of each single compound” value is, setting by setting: (Table 3, alone, 125 ppm) “Prussian blue: 125 ppm (5) %”; (Table 4, alone, 125 ppm) “Prussian blue: 125 ppm (5) %”. In the case of `[Cu+2].c1ccc2c(c1)-c1nc-2nc2[n-]c(nc3nc(nc4[n-]c(n1)c1ccccc41)-c1ccccc1-3)c1ccccc21` [Cu(II) phthalocyanine, copper phthalocyanine], the “Activity (y)” value (SIN compound alone, 32 ppm of equivalent metal) is recorded as 10. For the same molecule, the “% activity of each single compound” value under setting [1] was “(8) %”. Take `COC(=O)CC(NC(=O)[C@@H](NC(=O)OC(C)C)C(C)C)c1ccc(Cl)cc1` (stereo partly drawn) [IR5885, methyl [S—(R,S)]-[3-(N-isopropoxycarbonylvalinyl)-amino]-3-(4-chlorophenyl)propanoate]: the “% activity of each single compound” value (Table 4, alone, 0.45 ppm) is on record as “IR5885: 0.45 ppm (41) %”.

In the case of `[O]=[Zn]` [ZnO, zinc oxide], the “Activity (y)” value (SIN compound alone, 250 ppm) came out at 30. Moreover, the “% activity of each single compound” value runs as follows: (Table 3, alone, 125 ppm) “ZnO: 125 ppm (14) %”; (Table 4, alone, 125 ppm) “ZnO: 125 ppm (14) %”.

Consider `O=[PH]([O-])[O-].[Cu+2]` [CuHPO3, copper (II) salt of phosphorous acid], for which the “% activity of each single compound” value is listed as “CuHPO3: 250 ppm** (55) %” (Table 3, alone, 250 ppm of equivalent phosphorous acid) and “CuHPO3: 125 ppm** (32) %” under setting [2]. Besides, under setting [3], the “Activity (y)” value was 55. In the case of `O=c1ccc2cc(O[C@@H]3O[C@H](CO)[C@@H](O)[C@H](O)[C@H]3O)c(O)cc2o1` [Esculin, esculin], the “Activity (y)” value (SIN compound alone, 25 ppm) was determined as 10.

For `COC(=O)[C@@H](C)N(C(=O)Cc1ccccc1)c1c(C)cccc1C` [IR6141, methyl N-(phenylacetyl)-N-2,6-xylyl-R-alaninate], for the setting “Plasmopara viticola, Table 4, alone, 5 ppm, read-out: % activity of each single compound”, the inhibition at 5 ppm came to 45%.

Consider silicic acid, for which the “Activity (y)” value (SIN compound alone, 14 ppm of equivalent metal) was 14. titanium dioxide [TiO2]: the “Activity (y)” value (SIN compound alone, 250 ppm) is 13. Also, the “% activity of each single compound” value is, setting by setting: (Table 3, alone, 125 ppm) “TiO2: 125 ppm (3) %”; (Table 4, alone, 125 ppm) “TiO2: 125 ppm (3) %”. `O=C(O)c1ccccc1[O-].O=C(O)c1ccccc1[O-].[Cu+2]` [Cu(SA)]: under setting [1], the “% activity of each single compound” value is “Cu(SA): 32 ppm*** (42) %”. Consider `O=[PH]([O-])[O-].[Zn+2]` [ZnHPO3, zinc salt of phosphorous acid], for which the “% activity of each single compound” value under setting [2] was “ZnHPO3: 125 ppm** (18) %”. In addition, the “Activity (y)” value under setting [3] was 35.
